Tested on: A2780 ovarian cancer cells
Experiment: Alamar Blue cell proliferation assay, A2780
Assay type: cell-based, human
Details: 4-day incubation
Procedure: Cellular activity of the compounds of formula (I) was determined on A2780 tumour cells using a colorimetric assay for cell toxicity or survival (see example C.2).
The human A2780 ovarian cancer cells were a kind gift from Dr. T. C. Hamilton (Fox Chase Cancer Centre, Pennsylvania, U.S.A.). The cells were cultured in RPMI 1640 medium supplemented with 2 mM L-Glutamine, 50 μg/ml gentamicin and 10% fetal calf serum.
(§1) Resazurin was purchased from Aldrich (Prod. No. 199303). Potassium ferrocyanide, potassium ferricyanide, KH2PO4 and K2HPO4 were purchased from Sigma (Prod. Nos. P9387, P8131, P5655 and P8281, respectively).
(§2) Potassium Phosphate Buffer 0.1 M (PPB) was made as follows: 2.72 gram KH2PO4 and 13.86 gram K2HPO4 were dissolved in 500 ml milli-Q H2O, the pH was adjusted to pH 7.4 and the volume was brought to 1 litre with milli-Q H2O; the buffer was filter sterilised and stored at room temperature. Resazurin stock solution (PPB-A) was prepared fresh by dissolving 45 mg resazurin in 15 ml PBS. 30 mM potassium ferricyanide (PPB-B) was prepared by dissolving 0.987 gram potassium ferricyanide in 100 ml PPB. 30 mM potassium ferrocyanide (PPB-C) was prepared by dissolving 1.266 gram potassium ferrocyanide in 100 ml PPB.
(§3) Mixture of PPB-A, PPB-B and PPB-C was prepared by mixing equal volumes of the respective solutions. Resazurin work solution (herein termed “Alamar Blue” solution) was prepared by diluting said mixture 20×(vol/vol) in PPB and filter sterilising; the Alamar Blue solution could be kept at 4° C. for a maximum of 2 weeks.
(§4) For experiments in 384 wells plates the cells were seeded at a density of 5×10^3 cells/ml in Falcon 384-well culture plates (Life Technologies, Merelbeke, Belgium), black with clear bottom, in 45 μl culture medium. Cells were allowed to adhere to plastic for 24 hr. The tested compound was pre-diluted (1/50 in culture medium) and 5 μl pre-diluted compound was added to the wells. Following 4-day incubation, 10 μl of the Alamar Blue solution was added to each well and the cells were further incubated for 5 hrs (A2780) or 6 hrs (U87MG) at 37° C. The fluorescence intensity was measured for each well with a Fluorescence plate reader (Fluorskan, Labsystems, 540 nm excitation and 590 nm emission)
(§5) The antiproliferative activity was calculated as percentage of remaining viable cells in treated versus control (untreated cells) conditions. Within an experiment, the result for each experimental condition is the mean of 3 replicate wells. When appropriate, the experiments were repeated to establish full concentration-response curves. When appropriate, IC50-values (concentration of the drug, needed to reduce cell growth to 50% of the control) were computed using probit analysis for graded data (Finney, D. J., Probit Analyses, 2nd Ed. Chapter 10, Graded Responses, Cambridge University Press, Cambridge 1962). Herein the effects of test compounds are expressed as pIC50 (the negative log value of the IC50-value) (see Table 4).

Structure (SMILES) | A2780 cell proliferation inhibition pIC50
COc1ccc2c(CCNc3c(F)cc(Nc4ccncc4)cc3F)c[nH]c2c1 [Compound 13] | <5
COc1ccc2c(CCNc3c(F)cc(Nc4ccnc(CO)c4)cc3F)c[nH]c2c1 [Compound 16] | <5
COc1ccc2c(CCNc3c(F)cc(Nc4ccnc5c4CCC5O)cc3F)c[nH]c2c1 (centres unmarked) [Compound 19] | <5
Clc1cc(Nc2ccncc2)cc(Cl)c1NCCc1c[nH]c2ccccc12 [Compound 20] | <5
Cc1cccc2c(CCNc3c(Cl)cc(Nc4ccncc4)cc3Cl)c[nH]c12 [Compound 21] | <5
COc1ccc2c(CCNc3c(Cl)cc(Nc4ccncc4)cc3Cl)c[nH]c2c1 [Compound 22] | <5
COc1cccc2c(CCNc3c(Cl)cc(Nc4ccncc4)cc3Cl)c[nH]c12 [Compound 23] | <5
COc1ccc2c(CCNc3c(Cl)cc(Nc4ccnc(CO)c4)cc3Cl)c[nH]c2c1 [Compound 27] | <5
COc1cccc2c(CCNc3c(Cl)cc(Nc4ccnc(CO)c4)cc3Cl)c[nH]c12 [Compound 28] | <5
Cc1cccc2c(CCNc3c(Cl)cc(Nc4ccnc5ccccc45)cc3Cl)c[nH]c12 [Compound 30] | 5.08
COc1cccc2c(CCNc3c(Cl)cc(Nc4ccnc5ccccc45)cc3Cl)c[nH]c12 [Compound 32] | <5
OC1CCc2c(Nc3cc(Cl)c(NCCc4c[nH]c5ccccc45)c(Cl)c3)ccnc21 (centres unmarked) [Compound 33] | <5
Cc1[nH]c2ccccc2c1CCNc1c(Cl)cc(Nc2ccnc3c2CCC3O)cc1Cl (centres unmarked) [Compound 34] | 5.67
Cc1cccc2c(CCNc3c(Cl)cc(Nc4ccnc5c4CCC5O)cc3Cl)c[nH]c12 (centres unmarked) [Compound 35] | <5
COc1ccc2c(CCNc3c(Cl)cc(Nc4ccnc5c4CCC5O)cc3Cl)c[nH]c2c1 (centres unmarked) [Compound 36] | <5
COc1cccc2c(CCNc3c(Cl)cc(Nc4ccnc5c4CCC5O)cc3Cl)c[nH]c12 (centres unmarked) [Compound 37] | <5
OCc1cc(Nc2cc(Br)c(NCCc3c[nH]c4ccccc34)cc2CO)ccn1 [Compound 52] | <5
OCc1cc(NCCc2c[nH]c3ccccc23)c(Br)cc1Nc1ccnc2c1CCC2O (centres unmarked) [Compound 54] | <5

Same assay, conditions: Homo sapiens, 96 h, 4-day incubation, read-out: A2780 cell proliferation inhibition pIC50 (converted)

Structure (SMILES) | IC50
OCc1cc(Nc2cc(F)c(NCCc3c[nH]c4ccccc34)c(F)c2)ccn1 [Compound 14] | > 10 µM

Tested on: U87MG glioma cells
Experiment: Alamar Blue cell proliferation assay, U87MG
Assay type: cell-based, human
Details: 4-day incubation
Procedure: The human U87MG glioma cells were cultured in DMEM medium supplemented with 2 mM L-Glutamine, 1 mM Sodium Pyruvate, 1.5 g/L Sodium Bicarbonate, 50 μg/ml gentamicin and 10% heat inactivated fetal calf serum. (U87MG cells are human glioblastoma cells with wild type p53. In this cell line MDM2 tightly controls p53 expression).
as §1, §2, §3, §4, §5

Structure (SMILES) | U87MG cell proliferation inhibition pIC50
COc1ccc2c(CCNc3c(F)cc(Nc4ccncc4)cc3F)c[nH]c2c1 [Compound 13] | 5.18
COc1ccc2c(CCNc3c(F)cc(Nc4ccnc(CO)c4)cc3F)c[nH]c2c1 [Compound 16] | <5
COc1ccc2c(CCNc3c(F)cc(Nc4ccnc5c4CCC5O)cc3F)c[nH]c2c1 (centres unmarked) [Compound 19] | 5.15
Clc1cc(Nc2ccncc2)cc(Cl)c1NCCc1c[nH]c2ccccc12 [Compound 20] | <5
Cc1cccc2c(CCNc3c(Cl)cc(Nc4ccncc4)cc3Cl)c[nH]c12 [Compound 21] | <5
COc1ccc2c(CCNc3c(Cl)cc(Nc4ccncc4)cc3Cl)c[nH]c2c1 [Compound 22] | 5.29
COc1cccc2c(CCNc3c(Cl)cc(Nc4ccncc4)cc3Cl)c[nH]c12 [Compound 23] | <5
COc1ccc2c(CCNc3c(Cl)cc(Nc4ccnc(CO)c4)cc3Cl)c[nH]c2c1 [Compound 27] | <5
COc1cccc2c(CCNc3c(Cl)cc(Nc4ccnc(CO)c4)cc3Cl)c[nH]c12 [Compound 28] | <5
Cc1cccc2c(CCNc3c(Cl)cc(Nc4ccnc5ccccc45)cc3Cl)c[nH]c12 [Compound 30] | 5.06
COc1cccc2c(CCNc3c(Cl)cc(Nc4ccnc5ccccc45)cc3Cl)c[nH]c12 [Compound 32] | 5.48
OC1CCc2c(Nc3cc(Cl)c(NCCc4c[nH]c5ccccc45)c(Cl)c3)ccnc21 (centres unmarked) [Compound 33] | <5
Cc1[nH]c2ccccc2c1CCNc1c(Cl)cc(Nc2ccnc3c2CCC3O)cc1Cl (centres unmarked) [Compound 34] | 5.14
Cc1cccc2c(CCNc3c(Cl)cc(Nc4ccnc5c4CCC5O)cc3Cl)c[nH]c12 (centres unmarked) [Compound 35] | <5
COc1ccc2c(CCNc3c(Cl)cc(Nc4ccnc5c4CCC5O)cc3Cl)c[nH]c2c1 (centres unmarked) [Compound 36] | 5.08
COc1cccc2c(CCNc3c(Cl)cc(Nc4ccnc5c4CCC5O)cc3Cl)c[nH]c12 (centres unmarked) [Compound 37] | <5
OCc1cc(Nc2cc(Br)c(NCCc3c[nH]c4ccccc34)cc2CO)ccn1 [Compound 52] | 5.33

Same assay, conditions: Homo sapiens, U-87 MG, 96 h, 4-day incubation, read-out: U87MG cell proliferation inhibition pIC50 (converted)

Structure (SMILES) | IC50
OCc1cc(Nc2cc(F)c(NCCc3c[nH]c4ccccc34)c(F)c2)ccn1 [Compound 14] | > 10 µM

Tested on: p53 in A2780 cells
Experiment: p53 ELISA (preservation of p53 in A2780 cells)
Assay type: cell-based, human
Details: Homo sapiens, lowest dose giving at least 140% of the p53 value in the control, 16 hours treatment, read-out: p53-elisa LAD
Procedure: The capacity of the compounds to preserve p53 in A2780 cells was measured with the p53 enzyme linked immunosorbent assay (ELISA). The p53 assay is a “sandwich” enzyme immunoassay employing two polyclonal antibodies. A polyclonal antibody, specific for the p53 protein, has been immobilized onto the surface of the plastic wells. Any p53 present in the sample to be assayed will bind to the capture antibody. The biotinylated detector polyclonal antibody also recognizes p53 protein, and will bind to any p53, which has been retained by the capture antibody. The detector antibody, in turn, is bound by horseradish peroxidase-conjugated streptavidin. The horseradish peroxidase catalyses the conversion of the chromogenic substrate o-phenylene diamine, the intensity of which is proportional to the amount of p53 protein bound to the plate. The coloured reaction product is quantified using a spectrophotometer. Quantitation is achieved by the construction of a standard curve using known concentrations of purified recombinant HIS tagged p53 protein (see example C.1).
A2780 cells (ATCC) were cultivated in RPMI 1640 supplemented with 10% fetal calf serum (FCS), 2 mM L-glutamine and gentamycin at 37° C. in a humidified incubator with 5% CO2.
A2780 cells were seeded at 20.000 cells per well in a 96 well plate, cultured for 24 hours and treated with compound for 16 hours at 37° C. in a humidified incubator. After incubation, the cells were washed once with phosphate-buffered saline and 30 μl, per well, low salt RIPA buffer (20 mM tris, pH7.0, 0.5 mM EDTA, 1% Nonidet P40, 0.5% DOC, 0.05% SDS, 1 mM PMSF, 1 μg/ml aprotinin and 0.5 μ/ml leupeptin) was added. Plates were placed on ice for 30 minutes to complete the lysis. p53 protein was detected in de lysates by using the sandwich ELISA, described below.
High binding polystyrene EIA/RIA 96 well plates (Costar 9018) were coated with the capture antibody pAb1801 (Abcam ab28-100) at a concentration of 1 μg/ml in coating buffer (0.1 M NaHCO3 pH8.2), 50 μl per well. The antibody was allowed to adhere overnight at 4° C. Coated plates were washed once with phosphate-buffered saline (PBS)/0.05% Tween 20 and 300 μl of blocking buffer (PBS, 1% bovine serum albumins (BSA)) was added, for an incubation period of 2 hours at room temperature. Dilutions of purified recombinant HIS tagged p53 protein, ranging from 3-200 ng/ml, were made in blocking buffer and used as standards.
Plates were washed twice with PBS/0.05% Tween 20 and blocking buffer or standards were added at 80 μl/well. To the standards, 20 μl of lysis buffer was added. The samples were added to the other wells at 20 μl lysate/well. After an overnight incubation at 4° C., plates were washed twice with PBS/0.05% Tween 20. Aliquots of 100 μl secondary polyclonal antibody p53(FL-393) (Tebubio, sc-6243) at a concentration of 1 μg/ml in blocking buffer were added to each well and allowed to adhere for 2 hours at room temperature. Plates were washed three times with PBS/0.05% Tween 20. Detection antibody anti-rabbit HRP (sc-2004, Tebubio) at 0.04 μg/ml in PBS/1% BSA was added and incubated for 1 hour at room temperature. Plates were washed three times with PBS/0.05% Tween 20 and 100 μl of substrate buffer was added (substrate buffer was prepared shortly before use by adding 1 tablet of 10 mg o-phenylene diamine (OPD) from Sigma and 125 μl 3% H2O2 to 25 ml OPD buffer: 35 mM citric acid, 66 mM Na2HPO4, pH5.6). After 5 to 10 minutes, colour reaction was stopped by adding 50 μl stop buffer (1 M H2SO4) per well. The absorbance at dual wavelengths of 490/655 nm was measured using a Biorad micro plate reader and the results were then analyzed.
For each experiment, controls (containing no drug) and a blank incubation (containing no cells or drugs) were run in parallel. The blank value was subtracted from all control and sample values. For each sample, the value of p53 (in absorbance units) was expressed as the percentage of the value for p53 present in the control. […]

Structure (SMILES) | minimal effective concentration
OCc1cc(Nc2cc(F)c(NCCc3c[nH]c4ccccc34)c(F)c2)ccn1 [Compound 14] | > 10 µM

Same assay, conditions: lowest dose giving at least 140% of the p53 value in the control, 16 hours treatment

Structure (SMILES) | p53-elisa LAD
COc1ccc2c(CCNc3c(F)cc(Nc4ccncc4)cc3F)c[nH]c2c1 [Compound 13] | >10.0 µM
COc1ccc2c(CCNc3c(F)cc(Nc4ccnc(CO)c4)cc3F)c[nH]c2c1 [Compound 16] | >10.0 µM
COc1ccc2c(CCNc3c(F)cc(Nc4ccnc5c4CCC5O)cc3F)c[nH]c2c1 (centres unmarked) [Compound 19] | >10.0 µM
Clc1cc(Nc2ccncc2)cc(Cl)c1NCCc1c[nH]c2ccccc12 [Compound 20] | >10.0 µM
Cc1cccc2c(CCNc3c(Cl)cc(Nc4ccncc4)cc3Cl)c[nH]c12 [Compound 21] | >10.0 µM
COc1ccc2c(CCNc3c(Cl)cc(Nc4ccncc4)cc3Cl)c[nH]c2c1 [Compound 22] | >10.0 µM
COc1cccc2c(CCNc3c(Cl)cc(Nc4ccncc4)cc3Cl)c[nH]c12 [Compound 23] | >10.0 µM
COc1ccc2c(CCNc3c(Cl)cc(Nc4ccnc(CO)c4)cc3Cl)c[nH]c2c1 [Compound 27] | >10.0 µM
COc1cccc2c(CCNc3c(Cl)cc(Nc4ccnc(CO)c4)cc3Cl)c[nH]c12 [Compound 28] | >10.0 µM
Cc1cccc2c(CCNc3c(Cl)cc(Nc4ccnc5ccccc45)cc3Cl)c[nH]c12 [Compound 30] | 1.0 µM
COc1cccc2c(CCNc3c(Cl)cc(Nc4ccnc5ccccc45)cc3Cl)c[nH]c12 [Compound 32] | >10.0 µM
OC1CCc2c(Nc3cc(Cl)c(NCCc4c[nH]c5ccccc45)c(Cl)c3)ccnc21 (centres unmarked) [Compound 33] | 3.0 µM
Cc1[nH]c2ccccc2c1CCNc1c(Cl)cc(Nc2ccnc3c2CCC3O)cc1Cl (centres unmarked) [Compound 34] | 1.0 µM
Cc1cccc2c(CCNc3c(Cl)cc(Nc4ccnc5c4CCC5O)cc3Cl)c[nH]c12 (centres unmarked) [Compound 35] | 1.0 µM
COc1ccc2c(CCNc3c(Cl)cc(Nc4ccnc5c4CCC5O)cc3Cl)c[nH]c2c1 (centres unmarked) [Compound 36] | 10.0 µM
COc1cccc2c(CCNc3c(Cl)cc(Nc4ccnc5c4CCC5O)cc3Cl)c[nH]c12 (centres unmarked) [Compound 37] | 3.0 µM
OCc1cc(Nc2cc(Br)c(NCCc3c[nH]c4ccccc34)cc2CO)ccn1 [Compound 52] | >10.0 µM
OCc1cc(NCCc2c[nH]c3ccccc23)c(Br)cc1Nc1ccnc2c1CCC2O (centres unmarked) [Compound 54] | >10.0 µM
